Laboratory results: US11185516B2 (Laboratorios Silanes S.A. DE C.V., priority 2016, dated 2021)

Experiments:
C57BL/6 mice = assay: Glycemia and dietary intake in C57BL/6 mice; assay type: in vivo, mouse; details: 1 week
Source text: The mean glycemic values at the beginning and end of the experiment are represented for each group (n=3) with their standard deviations.

[1] = system: IRS2 knockout mice (IRS2-/-); details: 100 mg/kg/day, 8 weeks
Method: At the 8-week treatment time point, there were 6 mice in each treatment group. Adipose tissue was collected upon sacrifice and frozen in liquid N2. Lipidomics analysis of the tissue was then performed using HPLC/MS. […] Statistical differences between the experimental groups shown in FIG. 22 were assessed by Student's T test. P value of <0.01 is indicated by **.

[2] = system: IRS2 knockout mice (KO IRS2); assay: Body weight in IRS2 knockout mice; assay type: in vivo, mouse; details: 100 mg/kg/day, 8 weeks
Method: Body weight of the mice was measured prior to the onset of treatment, at 4 weeks after treatment, and at 8 weeks after treatment. There were 8 mice in each group at the pre-treatment and 4-week treatment time points. […] Statistical differences between the experimental groups shown in FIG. 20 were assessed by Student's T test. P value of <0.05 is indicated by *.

[3] = system: proIL-1β, TNFα, iNOS, IL-6, MCP-1 and IL-12; assay: Inflammation marker expression in palmitate-stimulated L1 adipocytes (RT-qPCR); assay type: cell-based; details: 10 mM, palmitate 500 μM, 24 h
Method: Palmitate is a saturated fatty acid that simulates an experimental obese state. It can be used as a pro-inflammatory stimulant for cytokines such as proIL-1β, TNFα, iNOS, IL-6, MCP-1 and IL-12.
Next, the relative expression of inflammation markers was analyzed by RT and qPCR using HPRT-1 as a normalizer and the untreated cell expression levels as a reference (for MCP-1 and IL-12) or those treated palmitate. After the treatments, culture media were collected and subsequently analyzed, cells were washed with PBS, and RNA was extracted (illustra RNAspin Mini, GE Healthcare) and reverse transcribed (High Capacity cDNA Reverse Transcription Kit, Life Technologies). The expression of the genes that were the object of the study was analyzed by qPCR using specific probes (TaqMan® Gene Expression Assays, Life Technologies). The relative expression (RQ), represented in the figure, was calculated by the ΔΔCt method.

clinical = details: both, human, in vivo, oral, 1240 mg, tmax, median [minimum-maximum], 1240 mg single administration without food
GPBP = GPBP (Homo sapiens, UniProt Q9Y5P4); details: 1 mM, FIG. 6A
GLUT4 = GLUT4 translocation (FIG. 19A)
wild type controls (WT) = details: 100 mg/kg/day, 8 weeks, fasting
Method: (§1) At the 8-week treatment time point, there were 8 mice in each of the WT groups, 6 mice in the KO IRS2 untreated control group, 7 mice in the KO IRS2 SLN1 treated group, and 8 mice in the KO SLN2 treated group. Blood was collected at the time of sacrifice and used to measure TG under fasting conditions. […] Statistical differences between the experimental groups shown in FIG. 21 were assessed by Student's T test. P value of <0.05 is indicated by *.

IRS2 knockout mice = details: 100 mg/kg/day, 4 weeks
Source text: Insulin receptor substrate 2 (IRS2) is a cytoplasmic signaling molecule that mediates effects of insulin, insulin-like growth factor 1, and other cytokines by acting as a molecular adaptor between diverse receptor tyrosine kinases and downstream effectors. Mice lacking IRS2 (e.g., IRS2 knockout mice) have a diabetic phenotype and increased serum leptin levels. Leptin is a hormone made by adipose cells that regulates appetite and inhibits hunger.
The levels of fasting serum leptin, at the beginning and at the end of the treatments, were determined with a kit (Sigma) following the instructions by the manufacturer.

[4] = system: IRS2 knockout mice (KO IRS2); assay: Serum triglycerides in IRS2 knockout mice; assay type: in vivo, mouse; details: 100 mg/kg/day, 8 weeks, fasting
Method: as §1

Sequence of GPBP (Q9Y5P4 whole entry): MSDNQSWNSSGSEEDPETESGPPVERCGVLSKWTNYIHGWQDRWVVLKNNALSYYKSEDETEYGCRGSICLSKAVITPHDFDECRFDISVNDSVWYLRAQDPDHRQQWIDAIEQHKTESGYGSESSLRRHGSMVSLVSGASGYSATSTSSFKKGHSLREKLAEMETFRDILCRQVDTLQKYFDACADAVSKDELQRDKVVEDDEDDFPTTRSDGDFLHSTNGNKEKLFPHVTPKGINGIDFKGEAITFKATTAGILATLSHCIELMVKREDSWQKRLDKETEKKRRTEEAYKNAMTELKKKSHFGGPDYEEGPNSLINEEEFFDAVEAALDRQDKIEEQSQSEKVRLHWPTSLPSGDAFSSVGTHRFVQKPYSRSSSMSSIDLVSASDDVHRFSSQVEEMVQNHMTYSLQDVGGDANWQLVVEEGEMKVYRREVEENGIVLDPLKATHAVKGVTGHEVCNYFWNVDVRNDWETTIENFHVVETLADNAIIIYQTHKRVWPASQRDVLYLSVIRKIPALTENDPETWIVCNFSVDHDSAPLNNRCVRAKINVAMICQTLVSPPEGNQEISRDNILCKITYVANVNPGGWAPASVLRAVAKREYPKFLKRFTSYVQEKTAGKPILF

CN(C)C(=N)NC(=N)N [Metformin glycinate, N,N-dimethylimidodicarbonimidic diamide glycinate]
glycemia, end vs beginning (C57BL/6 mice; 100 mg/kg/day mixed with solid food, n=3): significantly reduced glycemia | extent of glycemia reduction compared to metformin hydrochloride (C57BL/6 mice; 100 mg/kg/day): to a greater extent | food intake compared to untreated mice (C57BL/6 mice; 100 mg/kg/day): food intake was greater | adipose tissue triglyceride 16:0 compared to control IRS2−/− [1]: significantly lower | adipose tissue triglyceride 18:1n-9c compared to control IRS2−/− [1]: drastically reduced | average body weight, post- vs pre-treatment [2]: significantly lower after 8 weeks than before treatment | anti-inflammatory effectiveness, comparison of the two salts [3]: significantly more effective than metformin hydrochloride | inflammatory response of palmitate-stimulated adipocytes [3]: attenuated the inflammatory response | Tmax (clinical): 1.5 h | GPBP auto-phosphorylation activity (GPBP): inhibition of GPBP auto-phosphorylation activity | GLUT4 translocation (GLUT4): translocated GLUT4 | serum triglycerides compared to untreated or SLN1-treated control mice (wild type controls (WT)): lower | reduction of fasting serum leptin levels compared to metformin hydrochloride (IRS2 knockout mice): greater reduction of fasting serum leptin levels | fasting serum leptin levels (IRS2 knockout mice; end vs beginning of treatment): reduced fasting serum leptin levels | Tmax, comparative analysis (620 mg BID vs metformin hydrochloride 1000 mg BID): statistically significant differences | bioequivalence (90% C.I. in magnitude and velocity) (620 mg against metformin hydrochloride 500 mg): within the theoretical ranges of bioequivalence | pharmacokinetic parameters of test vs reference (metformin hydrochloride) (Stage B, multiple doses): similar | serum triglycerides compared to untreated KO IRS2 [4]: lower
